The source of these data is patent publication US20250270212A1, “CHIMERIC COMPOUNDS USEFUL IN TREATING DISEASES” (Padarn Therapeutics, Inc., priority 2021, published 2025).

Usually EC50 stands for the concentration at which the effect is half-maximal.

Each structure is given as a SMILES string. Like-named read-outs stand apart in the source and are kept apart here.

The test system of one test is MDA-MB-231. The experiment in a line: Cellular growth inhibition assay (CellTiter-Glo). It is filed as cell-based. The conditions noted are these: Homo sapiens. As to the method:
Example E. Cellular Growth Inhibition Assay
HEK293 (Institute of Cytology Russian Academy of Science), MDA-MB-231 (ATCC, CRM-HTB-26), HCC1395 (ATCC, CRL-2324), HCC1937 (ATCC, CRL-2336), UWB1.289+BRCA1 (ATCC, CRL-2946) were seeded at a density of 500 cells per well in a 384-well clear bottom plate (Greiner Cat #781090) in 45 μl total volume of DMEM (PanEco, Cat #C420) or RPMI (PanEco, Cat #C330) or RPMI/MEBM (Lonza, Cat #CC-3151+CC-4136) with 10% FBS (HyClone, Cat #SV30160.03). Cells were allowed to adhere overnight at 370 C, 5% CO2. 500× compounds solutions in DMSO (Sigma Cat #D2650) were prepared into Cmpnds plate (Diamond Well Plate, Axigen, Cat #P-384-120SQ-C-S) and DMSO only control was included. 1 μl of 500× compounds (Cmpnds plate) was added to 49 μl of culture medium into Dilution plate (Diamond Well Plate, Axigen, Cat #P-384-120SQ-C-S), mixed and then 5 μl of 10× compounds solutions were transferred to cells followed by centrifugation at 100 g for 1 min. Final DMSO concentration was 0.2%. After 3 days of incubation, 10 μl of 1× compounds were added to cells. […]

Test [1] deals with recombinant PARP1 (AA662-1014) protein (Homo sapiens (Human), UniProt P09874). The experiment in a line: Tracer displacement fluorescence polarization assay. The conditions noted are these: displacement of AlexaFluor488 tracer from NAD+-binding site, PARP1 25 nM. As to the method:
Example B. Tracer Displacement Fluorescence Polarization Assays
Displacement of AlexaFlour488 marked tracer from the NAD+-binding site of recombinant PARP1 (AA662-1014) protein (OriGene, Cat #: AR09368PU-L) was measured in vitro using Fluorescence polarization assay. The reaction was carried out in assay buffer (50 mM TRIS-HCl pH 7.4-7.8, 150 mM NaCl, 10 mM MgCl2, 0.001% Triton-X). 2×PARP1 (final concentration 25 nM) was diluted in 1× Assay buffer and 10 μl of the solution per well was added into 384-well Black Non-Treated Reaction plate (Corning, Cat #4511). Plates were centrifuged for 1 min at 200 g. The compounds were prepared in a 384-well Diamond Well Plate (Axygen, Cat #P-384-120SQ-C-S) as 400× solutions in DMSO and were transferred into Reaction plate using the Biomek FX liquid handling system with intermediate dilution down to 10× working solution in assay buffer in a separate 384-well Diamond Well Plate (Axygen, Cat #P-384-120SQ-C-S) (2 μl per well). Plates were centrifuged for 1 min at 200 g and incubated for 15 min at room temperature in the dark. Then 8 μL per well of 2.5× Tracer AlexaFluor488 (final concentration 1 nM) diluted in 1× Assay buffer was added into Reaction plate. 1× Assay buffer was used to make blank samples for instrument calculations. Plates were incubated for 30 minutes at room temperature in the dark. Fluorescence polarization was measured using Microplate Reader (BMG, ClarioStar Plus). The % tracer displacement was used to calculate the IC50 values. The IC50 values are shown in Table A, wherein “A” corresponds to IC50<0.01 μM, “B” corresponds to 0.01 μM≤IC50<0.1 μM, “C” 0.1 μM≤IC50<[…], and “D” corresponds to […].
On the technique in general: In fluorescence polarisation assays a small probe gives low polarisation when free and higher when bound to something large.

The next test addresses recombinant Wee1 protein (Homo sapiens (Human), UniProt P30291). The experiment in a line: Wee1 enzymatic activity inhibition, ADP-Glo luminescence assay. It is filed as biochemical. The note with it: recombinant Wee1, PolyE4Y1 substrate, 1 h room temperature. As to the method: Example A. Primary Assay Used to Determine Potency of Wee1 Enzymatic Activity Inhibition
Compound activity was determined using recombinant Wee1 protein (BPS, Cat #40412) and PolyE4Y1 Substrate (Poly(Glu,Tyr) sodium salt, Sigma, Cat #P0275-25MG) in an in vitro enzymatic reaction. The enzymatic assay used to determine activity was a Luminescence assay using a Microplate Reader (BMG, ClarioStar Plus). The enzymatic reaction was carried out in assay buffer (40 mM TRIS-HCl pH 7.4-7.6, 20 mM MgCl2, 0.05 mM DTT, 0.1 mg/ml BSA, 5 mM MnCl2). The compounds were dispensed on a 384 well Diamond Well Plate (Axigen, Cat #P-384-120SQ-C-S) using the Biomek FX liquid handling system at 100× solutions of compounds in DMSO. 2×Wee1-PolyE4Y1 mix (final concentration 0.85 ng/μl of Wee1 and 0.2 μg/μl of PolyE4Y1) was prepared in 1× Assay buffer and 5.5 μl of mixture per well was added into 384w white Reaction plate with NBS (Corning, Cat #4513). 5.5 μl of PolyE4Y1 substrate w/o Wee1 in 1× buffer was used for negative control. Plates were centrifuged for 1 min at 100 g. Next step the Compounds were added to Reaction plate using Biomek station via following steps: 1 μl of 100× compounds (in DMSO) were mixed thoroughly with 49 μl of 2×10 μM ATP in Assay Buffer, then 5.5 μl of this mixture was added to Reaction plate with 5.5 μl of Wee1-PolyE4Y1 mix. Plates were centrifuged for 1 min at 100 g and incubated for 1 h at room temperature. Next 3 μL of ADP-Glo reagent (Promega, ADP-Glo™ Kinase Assay, Cat #V9102) per well was added. Plates were incubated for 30 minutes at room temperature. Then 6 μL of Kinase detection reagent (Promega, ADP-Glo™ Kinase Assay, Cat #V9102) per well was added and the Luminescence was measured using Microplate Reader. The % inhibition was then used to calculate the IC50 values. The IC50 values are shown in Table A, wherein “A” corresponds to IC50<0.01 μM, “B” corresponds to 0.01 μM≤IC50<0.1 μM, “C” 0.1 μM≤IC50<1 μM, and “D” corresponds to […].
(In general: ADP-Glo turns the ADP formed in a reaction into a luminescent signal.)

Where [2] appears, read: 120 h, MDA-MB-231, 5 days, read-out: MDA-MB-231 EC50 (μM) 5 days.
[3] abbreviates: 168 h, MDA-MB-231, 7 days, read-out: MDA-MB-231 EC50 (μM) 7 days.
The mark [4] stands for this setting: 240 h, MDA-MB-231, 10 days, read-out: MDA-MB-231 EC50 (μM) 10 days.

Chain of recombinant PARP1 (AA662-1014) protein (P09874 662-1014): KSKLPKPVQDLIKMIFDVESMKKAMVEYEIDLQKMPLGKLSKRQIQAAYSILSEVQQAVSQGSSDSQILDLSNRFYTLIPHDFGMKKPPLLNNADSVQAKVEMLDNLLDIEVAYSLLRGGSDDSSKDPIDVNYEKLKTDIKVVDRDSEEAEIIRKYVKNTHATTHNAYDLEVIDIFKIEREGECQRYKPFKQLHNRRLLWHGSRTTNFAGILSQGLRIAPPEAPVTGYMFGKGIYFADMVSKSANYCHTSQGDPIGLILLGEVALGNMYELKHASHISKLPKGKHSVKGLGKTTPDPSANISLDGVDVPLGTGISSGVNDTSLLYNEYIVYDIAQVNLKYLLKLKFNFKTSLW
Chain of recombinant Wee1 protein (P30291 whole entry): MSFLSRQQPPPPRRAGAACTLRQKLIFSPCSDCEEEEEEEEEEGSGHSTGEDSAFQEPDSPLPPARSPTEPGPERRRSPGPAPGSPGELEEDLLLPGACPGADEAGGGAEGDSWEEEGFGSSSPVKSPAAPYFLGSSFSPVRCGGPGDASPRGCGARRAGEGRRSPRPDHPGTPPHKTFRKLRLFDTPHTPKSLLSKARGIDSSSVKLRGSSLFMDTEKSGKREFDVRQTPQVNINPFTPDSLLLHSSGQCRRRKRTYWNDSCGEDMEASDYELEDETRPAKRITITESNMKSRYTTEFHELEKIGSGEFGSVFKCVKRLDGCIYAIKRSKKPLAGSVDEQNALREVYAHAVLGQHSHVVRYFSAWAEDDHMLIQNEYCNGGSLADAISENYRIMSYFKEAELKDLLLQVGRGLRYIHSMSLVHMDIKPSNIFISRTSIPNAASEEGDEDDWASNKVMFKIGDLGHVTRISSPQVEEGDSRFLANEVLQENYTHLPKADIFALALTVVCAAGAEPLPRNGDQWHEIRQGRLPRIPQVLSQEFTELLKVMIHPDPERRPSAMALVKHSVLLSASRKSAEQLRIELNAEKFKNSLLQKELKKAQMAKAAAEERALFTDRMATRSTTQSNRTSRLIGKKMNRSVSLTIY

Take `Cn1c(=O)c2cnc(Nc3ccc(N4CCN(C(=O)c5cc(Cc6n[nH]c(=O)c7ccccc67)ccc5F)CC4)cc3)nc2n1-c1ccccn1` [Compound 3, 4-{4-Fluoro-3-[(4-{4-[(2-methyl-3-oxo-1-pyridin-2-yl-2,3-dihydro-1H-pyrazolo[3,4-d]pyrimidin-6-yl)amino]phenyl}piperazin-1-yl)carbonyl]benzyl}phthalazin-1(2H)-one]: the values for the EC50 (in the test on MDA-MB-231 (setting [2]); in test [1]; on recombinant Wee1 protein) were 3.75 µM, less than 10 nM and 100 to 1000 nM, respectively.

Consider `C=CCn1c(=O)c2cnc(Nc3ccc(N4CCN(C(=O)c5cc(Cc6n[nH]c(=O)c7ccccc67)ccc5F)CC4)cc3)nc2n1-c1ccccn1` [Compound 10, 4-{3-[(4-{4-[(2-Allyl-3-oxo-1-pyridin-2-yl-2,3-dihydro-1H-pyrazolo[3,4-d]pyrimidin-6-yl)amino]phenyl}piperazin-1-yl)carbonyl]-4-fluorobenzyl}phthalazin-1(2H)-one], for which the EC50 in the test with MDA-MB-231 (setting [2]) was 4.89 µM; in the test on MDA-MB-231 (setting [3]) it was 2.59 µM; in the test with MDA-MB-231 (setting [4]), 1.49 µM; in test [1], less than 10 nM; on recombinant Wee1 protein it was 10 to 100 nM.

Regarding `Cn1c(=O)c2cnc(Nc3ccc(N4CCN(C(=O)c5cc(Cc6n[nH]c(=O)c7ccccc67)ccc5F)CC4)cc3)nc2n1-c1ncccn1` [Compound 11, 4-{4-Fluoro-3-[(4-{4-[(2-methyl-3-oxo-1-pyrimidin-2-yl-2,3-dihydro-1H-pyrazolo[3,4-d]pyrimidin-6-yl)amino]phenyl}piperazin-1-yl)carbonyl]benzyl}phthalazin-1(2H)-one], the concentration for a half-maximal effect (EC50) was 8.76 µM with MDA-MB-231 (setting [2]); 6.28 µM with MDA-MB-231 (setting [3]); 3.6 µM with MDA-MB-231 (setting [4]); less than 10 nM in test [1]; 10 to 100 nM at recombinant Wee1 protein.

As for `Cn1c(=O)c2cnc(Nc3ccc(N4CCN(C(=O)c5cc(Cn6c(=O)[nH]c(=O)c7c(F)cccc76)ccc5F)CC4)cc3)nc2n1-c1ccccn1` [Compound 18, 5-Fluoro-1-{4-fluoro-3-[(4-{4-[(2-methyl-3-oxo-1-pyridin-2-yl-2,3-dihydro-1H-pyrazolo[3,4-d]pyrimidin-6-yl)amino]phenyl}piperazin-1-yl)carbonyl]benzyl}quinazoline-2,4(1H,3H)-dione], the concentration for a half-maximal effect (EC50) was more than 10 µM in the test with MDA-MB-231 (setting [2]), less than 10 nM in test [1] and 10 to 100 nM on recombinant Wee1 protein.

With `Cn1c(=O)c2cnc(Nc3ccc(NC(=O)c4cc(Cn5c(=O)[nH]c(=O)c6c(F)cccc65)ccc4F)cc3)nc2n1-c1ccccn1` [Compound 33, 2-Fluoro-5-[(5-fluoro-2,4-dioxo-3,4-dihydroquinazolin-1(2H)-yl)methyl]-N-{4-[(2-methyl-3-oxo-1-pyridin-2-yl-2,3-dihydro-1H-pyrazolo[3,4-d]pyrimidin-6-yl)amino]phenyl}benzamide], the EC50 is more than 10 µM with MDA-MB-231 (setting [2]), not below 1 nM in test [1] and 100 to 1000 nM on recombinant Wee1 protein.

As for `C=CCn1c(=O)c2cnc(Nc3ccc(N4CCN(Cc5ccc(-c6[nH]c7cc(F)cc8c7c6CCNC8=O)cc5)CC4)cc3)nc2n1-c1cccc(C(C)(C)O)n1` [Compound 35, 2-[4-({4-[4-({2-Allyl-1-[6-(1-hydroxy-1-methylethyl)pyridin-2-yl]-3-oxo-2,3-dihydro-1H-pyrazolo[3,4-d]pyrimidin-6-yl}amino)phenyl]piperazin-1-yl}methyl)phenyl]-8-fluoro-1,3,4,5-tetrahydro-6H-azepino[5,4,3-cd]indol-6-one], the EC50 was 0.98 µM in the test with MDA-MB-231 (setting [2]); 0.57 µM with MDA-MB-231 (setting [3]); 0.08 µM in the test with MDA-MB-231 (setting [4]); 10 to 100 nM in test [1]; 10 to 100 nM on recombinant Wee1 protein.

As to `Cn1c(=O)c2cnc(Nc3ccc(N4CCCC(c5nc6cccc(C(N)=O)c6[nH]5)C4)cc3)nc2n1-c1ccccn1` (centres unmarked) [Compound 96, 2-[1-[4-[[2-methyl-3-oxo-1-(2-pyridyl)pyrazolo[3,4-d]pyrimidin-6-yl]amino]phenyl]-3-piperidyl]-3H-benzimidazole-4-carboxamide], the half-maximal effective concentration (EC50) with MDA-MB-231 (setting [2]) is 2.77 µM; in test [1], 10 to 100 nM.
